Values quoted from earlier work, collected in patent US20260009077A1, “COMPOSITIONS AND METHODS FOR TREATING HYPOTHYROIDISM” (THE UNIVERSITY OF CHICAGO, priority 2022, published 2026).

SMILES: N[C@@H](Cc1cc(I)c(Oc2cc(I)c(O)c(I)c2)c(I)c1)C(=O)O [levothyroxine]
- proportion of patients noticing reemergence of hypothyroid symptoms (after switch from T4 and T3 containing treatment to T4 only, despite appropriate T4 doses): 15-20%
- patients in whom treatment restores normal life (hypothyroidism patients, daily tablets, standard of care): at least 80%
